Source: publication PMC7534336, “New classes of potent heparanase inhibitors from ligand-based virtual screening” (Journal of Enzyme Inhibition and Medicinal Chemistry, 2020)
Where two headings read alike, the source gives them in different places.

Target: human GS3 heparanase (Homo sapiens, UniProt Q9Y251)
Test: fondaparinux assay of heparanase enzymatic activity (WST-1 colorimetric)
Format: biochemical
Conditions: for % inhib @25 M ± SD: fixed concentration 25 µM (25 M [sic]); for % inhib @2.5 M ± SD: fixed concentration 2.5 µM (2.5 M [sic])
Description: To determine the activity of the heparanase inhibitors, a homogeneous assay based on the cleavage of the synthetic heparin oligosaccharide fondaparinux (Arixtra; Aspen) was used. The assay measures colorimetrically the appearance of the disaccharide product of heparanase-catalysed fondaparinux cleavage using the tetrazolium salt WST-1. The assay was essentially performed as described[39] with minor modifications. Briefly, Nunc 96-well (Thermo Fisher Scientific) plates were pre-treated with a solution of 4% BSA (bovine serum albumin, Sigma-Aldrich) in phosphate-buffered saline containing 0.05% Tween 20 (PBST), for 2 h at 37 °C, and then washed three times with PBST. […] The IC50 value for each compound was calculated by GraphPad software. Finally, the measurements were corrected by subtracting both the reagent background and the inner absorbance value of test compound.
Supporting Table S1 reports the structures of the fifty-five compounds purchased and tested, with information, for each compound, on the database from which it was retrieved, the reference inhibitor used to retrieve it and the similarity value with the reference inhibitor.

[1] = fondaparinux assay on human GS3 heparanase, mean of triplicates, read-out: IC50 (µM) ± SD, heparanase inhibitory activity
[2] = Table S1, fondaparinux assay on GS3 heparanase, read-out: IC50 (M) ± SD
[3] = fondaparinux assay on human GS3 heparanase, mean of triplicates

Chain of human GS3 heparanase (Q9Y251 other isoform, or with tags, fused parts or gaps): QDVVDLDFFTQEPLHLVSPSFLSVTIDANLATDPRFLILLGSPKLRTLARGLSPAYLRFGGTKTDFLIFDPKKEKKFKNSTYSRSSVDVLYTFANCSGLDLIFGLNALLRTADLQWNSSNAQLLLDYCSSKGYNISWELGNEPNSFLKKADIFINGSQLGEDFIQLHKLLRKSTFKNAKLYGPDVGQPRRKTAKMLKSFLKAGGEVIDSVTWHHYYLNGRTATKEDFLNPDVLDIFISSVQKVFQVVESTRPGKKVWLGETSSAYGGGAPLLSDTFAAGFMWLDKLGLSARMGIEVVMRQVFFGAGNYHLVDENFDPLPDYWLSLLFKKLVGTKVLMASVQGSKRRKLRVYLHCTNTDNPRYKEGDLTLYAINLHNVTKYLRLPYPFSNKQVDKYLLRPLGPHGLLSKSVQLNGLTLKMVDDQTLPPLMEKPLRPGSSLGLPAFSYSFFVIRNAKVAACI

| % inhib @25 M ± SD (Table S1) | % inhib @2.5 M ± SD (Table S1) | IC50 [1] [µM] | SMILES | further results |
| --- | --- | --- | --- | --- |
|  |  | 0.93 ± 0.07 | O=C(Nc1ccc2c(O)c(N=Nc3ccc(N=Nc4ccc(S(=O)(=O)O)cc4)cc3S(=O)(=O)O)c(S(=O)(=O)O)cc2c1)Nc1ccc2c(O)c(N=Nc3ccc(N=Nc4ccc(S(=O)(=O)O)cc4)cc3S(=O)(=O)O)c(S(=O)(=O)O)cc2c1 [Compound 15] |  |
| 95 ± 1% | 14 ± 2% |  | COc1cc(N=Nc2cccc(S(=O)(=O)O)c2)ccc1NC(=O)Nc1ccc(N=Nc2ccc(O)c(C(=O)O)c2)cc1 [Compound 17] |  |
| 11 ± 3% | 12 ± 3% |  | O=C(Nc1ccc2c(O)c(N=Nc3ccccc3)c(S(=O)(=O)O)cc2c1)Nc1ccc2c(O)c(N=Nc3ccccc3)c(S(=O)(=O)O)cc2c1 [Compound 18] |  |
|  |  | 1.76 ± 0.23 | Nc1ccc2cc(S(=O)(=O)O)cc(O)c2c1N=Nc1ccc(NC(=O)Nc2ccc(N=Nc3c(N)ccc4cc(S(=O)(=O)O)cc(O)c34)c(S(=O)(=O)O)c2)cc1S(=O)(=O)O [Compound 20] |  |
|  |  | 2.66 ± 0.32 | O=C(Nc1ccc(Br)cc1C(=O)O)c1ccc(Oc2ccc(C(=O)Nc3ccc(Br)cc3C(=O)O)cc2)cc1 [Compound 21] |  |
| 60 ±1% | 21 ± 1% |  | O=C(Nc1ccccc1Oc1ccc(C(=O)O)c(C(=O)O)c1)c1ccc(Oc2ccc(C(=O)Nc3ccccc3Oc3ccc(C(=O)O)c(C(=O)O)c3)cc2)cc1 [Compound 22] |  |
| 96 ± 3% |  |  | O=C(Nc1ccccc1C(=O)O)c1ccc2c(c1)C(=O)N(c1ccc(Oc3ccc(N4C(=O)c5ccc(C(=O)Nc6ccccc6C(=O)O)cc5C4=O)cc3)cc1)C2=O [Compound 23] |  |
|  |  | 1.1 ± 0.13 | O=C(Nc1ccccc1C(=O)O)c1ccc2c(c1)C(=O)N(c1ccc(S(=O)(=O)c3ccc(N4C(=O)c5ccc(C(=O)Nc6ccccc6C(=O)O)cc5C4=O)cc3)cc1)C2=O [Compound 24] |  |
| Not active |  |  | O=C(O)c1ccc2c(c1)C(=O)N(NC(=O)c1ccc(Oc3ccc(C(=O)NN4C(=O)c5ccc(C(=O)O)cc5C4=O)cc3)cc1)C2=O [Compound 25] |  |
| 99 ± 6% | 35 ± 1% |  | O=C(O)c1cc(C(=O)O)cc(N2C(=O)c3ccc(C(=O)c4ccc5c(c4)C(=O)N(c4cc(C(=O)O)cc(C(=O)O)c4)C5=O)cc3C2=O)c1 [Compound 26] |  |
| 70 ± 6% | Not active |  | O=C(O)c1ccc(Oc2ccc3c(c2)C(=O)N(c2ccc(S(=O)(=O)c4ccc(N5C(=O)c6ccc(Oc7ccc(C(=O)O)cc7)cc6C5=O)cc4)cc2)C3=O)cc1 [Compound 27] |  |
| 59 ± 5% | 14 ± 6% |  | Cc1c(NS(=O)(=O)c2cc(C(=O)Nc3ccc(-c4nc5ccccc5[nH]4)cc3)ccc2Cl)c(=O)n(-c2ccccc2)n1C [Compound 28] |  |
| 1 ± 1% | 11 ± 4% |  | COc1cc(C(=O)Nc2ccc(-c3nc4cc(NC(=O)c5cc(OC)c(OC)c(OC)c5)ccc4[nH]3)cc2)cc(OC)c1OC [Compound 30] |  |
| 58 ± 1% | 36 ± 5% |  | O=C(CSc1nc2ccccc2[nH]1)Nc1ccc(-c2nc3cc(NC(=O)CSc4nc5ccccc5[nH]4)ccc3o2)cc1 [Compound 33] |  |
|  |  | 0.52 ± 0.02 | O=C(O)/C=C/C(=O)Nc1ccc(Sc2ccc(Oc3ccc(Sc4ccc(NC(=O)/C=C/C(=O)O)cc4)cc3)cc2)cc1 [Compound 35] |  |
|  |  | 0.63 ± 0.01 | O=C(O)c1ccc(Oc2cccc(N3C(=O)c4ccc(Oc5ccc6c(c5)C(=O)N(c5cccc(Oc7ccc(C(=O)O)c(C(=O)O)c7)c5)C6=O)cc4C3=O)c2)cc1C(=O)O [Compound 36] |  |
|  |  |  | O=C(O)COc1ccc(N2C(=O)c3ccc(Oc4ccc5c(c4)C(=O)N(c4ccc(OCC(=O)O)cc4)C5=O)cc3C2=O)cc1 [Compound 37] | IC50 [2]: > 5 µM |
|  |  |  | O=C(Nc1cccc(-c2nc3ccccc3s2)c1)c1ccc(Oc2ccc(C(=O)Nc3cccc(-c4nc5ccccc5s4)c3)cc2)cc1 [Compound 38] | IC50 [2]: 5.75 ± 0.05 µM |
| 63 ± 16% | 60 ± 21% |  | O=C(Nc1ccc(-c2nc3ccccc3o2)cc1)c1ccc(Oc2ccc(C(=O)Nc3ccc(-c4nc5ccccc5o4)cc3)cc2)cc1 [Compound 39] |  |
|  |  |  | O=C(Nc1cccc(C(=O)c2ccccc2)c1)c1ccc(Oc2ccc(C(=O)Nc3cccc(C(=O)c4ccccc4)c3)cc2)cc1 [Compound 40] | IC50 [2]: > 5 µM |
| 76 ± 2% | 54 ± 6% |  | O=C(Nc1nc(-c2ccc3ccccc3c2)cs1)c1ccc(Oc2ccc(C(=O)Nc3nc(-c4ccc5ccccc5c4)cs3)cc2)cc1 [Compound 41] |  |
| 67 ± 4% | 44 ± 1% |  | O=C(Nc1nc(-c2ccc(F)cc2)cs1)c1ccc(Oc2ccc(C(=O)Nc3nc(-c4ccc(F)cc4)cs3)cc2)cc1 [Compound 43] |  |
| 60 ± 5% | 62 ± 2% |  | O=C(Nc1ccc(Oc2ccc(NC(=O)c3ccc4c(c3)C(=O)N(c3nccs3)C4=O)cc2)cc1)c1ccc2c(c1)C(=O)N(c1nccs1)C2=O [Compound 44] |  |
| 67 ± 4% | 41 ± 3% |  | O=C(Nc1c[nH]c(=O)[nH]c1=O)c1ccc2c(c1)C(=O)N(c1ccc(Oc3ccc(N4C(=O)c5ccc(C(=O)Nc6c[nH]c(=O)[nH]c6=O)cc5C4=O)cc3)cc1)C2=O [Compound 45] |  |
|  |  |  | O=C(Nc1cccc(Oc2ccc(S(=O)(=O)c3ccc(Oc4cccc(NC(=O)c5ccc(F)cc5)c4)cc3)cc2)c1)c1ccc(F)cc1 [Compound 46] | IC50 [2]: > 5 µM |
| 66 ± 5% | 30 ± 3% |  | O=C(Nc1ccc(Sc2ccc(Oc3ccc(Sc4ccc(NC(=O)c5cccc(F)c5)cc4)cc3)cc2)cc1)c1cccc(F)c1 [Compound 47] |  |
|  |  | 0.91 ± 0.1 | CC(C)(c1ccc(Oc2ccc3c(c2)C(=O)N(c2cccc(C(=O)O)c2)C3=O)cc1)c1ccc(Oc2ccc3c(c2)C(=O)N(c2cccc(C(=O)O)c2)C3=O)cc1 [Compound 48] | IC50 (µM) ± SD, heparanase inhibitory activity [3]: significant inhibitory potencies |
|  |  | 2.35 ± 0.23 | CC(C)(c1ccc(Oc2ccc3c(c2)C(=O)N(c2ccc(C(=O)O)cc2)C3=O)cc1)c1ccc(Oc2ccc3c(c2)C(=O)N(c2ccc(C(=O)O)cc2)C3=O)cc1 [Compound 49] | IC50 (µM) ± SD, heparanase inhibitory activity [3]: significant inhibitory potencies |
|  |  | 2.01 ± 0.13 | O=C(O)c1cc(NC(=O)c2ccc(Oc3ccc(C(=O)Nc4cc(C(=O)O)cc(C(=O)O)c4)cc3)cc2)cc(C(=O)O)c1 [Compound 50] | IC50 (µM) ± SD, heparanase inhibitory activity [3]: good inhibitory potencies |
| 77 ± 4% | 42 ± 6% |  | O=C(Nc1ccc(O)cc1C(=O)O)c1ccc(Oc2ccc(C(=O)Nc3ccc(O)cc3C(=O)O)cc2)cc1 [Compound 51] |  |

| SMILES | % inhib @25 M ± SD (Table S1) | % inhib @2.5 M ± SD (Table S1) | IC50 [1] [µM] | further results |
| --- | --- | --- | --- | --- |
| O=C(Nc1cccc(C(=O)Nc2ccc(S(=O)(=O)O)c3cc(S(=O)(=O)O)cc(S(=O)(=O)O)c23)c1)Nc1cccc(C(=O)Nc2ccc(S(=O)(=O)O)c3cc(S(=O)(=O)O)cc(S(=O)(=O)O)c23)c1 [Compound 9] | Not active |  |  |  |
| O=C(Nc1cccc(C(=O)Nc2cc(C(=O)Nc3ccc(S(=O)(=O)O)c4cc(S(=O)(=O)O)cc(S(=O)(=O)O)c34)ccc2F)c1)Nc1cccc(C(=O)Nc2cc(C(=O)Nc3ccc(S(=O)(=O)O)c4cc(S(=O)(=O)O)cc(S(=O)(=O)O)c34)ccc2F)c1 [Compound 10] | 100 ± 1% | 39 ± 3% |  |  |
| O=C(O)c1ccc(Oc2ccc3c(c2)C(=O)N(c2ccc(Oc4ccc(N5C(=O)c6ccc(Oc7ccc(C(=O)O)cc7)cc6C5=O)cc4)cc2)C3=O)cc1 [Compound 34] |  |  | 3.15 ± 0.28 |  |
